Measurements: ChEMBL document CHEMBL3885881, “DrugMatrix”

Species: Rattus norvegicus
Test: DrugMatrix - Regimen: Daily Repeat
Type: toxicity, organism-based, Sprague-Dawley
Set-up: regimen Daily Repeat, gender Male, age 6-8 weeks
Settings: in vivo, po, route oral GAVAGE, […]; for ABSOLUTE BASOPHIL / ABSOLUTE EOSINOPHIL / ABSOLUTE LYMPHOCYTE / ABSOLUTE MONOCYTE / ABSOLUTE SEGMENTED NEUTROPHIL / BASOPHIL / EOSINOPHIL / ERYTHROCYTE COUNT / HEMATOCRIT / HEMOGLOBIN / LEUKOCYTE COUNT / LYMPHOCYTE / MEAN CORPUSCULAR HEMOGLOBIN / MEAN CORPUSCULAR HEMOGLOBIN CONCENTRATION / MEAN CORPUSCULAR VOLUME / MONOCYTE / NEUTROPHIL / NUCLEATED RED BLOOD CELLS / PLATELET COUNT: tissue Blood; for ALANINE AMINOTRANSFERASE / ALBUMIN / ALKALINE PHOSPHATASE / ASPARTATE AMINOTRANSFERASE / BLOOD UREA NITROGEN / CARBON DIOXIDE / CHLORIDE / CHOLESTEROL / CREATINE PHOSPHOKINASE / CREATININE / GLUCOSE / LACTATE DEHYDROGENASE / LIPASE / PHOSPHORUS / POTASSIUM / SODIUM / TOTAL BILIRUBIN / TOTAL PROTEIN / URIC ACID: tissue Plasma
[1] = 2 mg/kg, 120 h, dose level High, time 5 day
[2] = 72 h, dose 0.58 mg/Kg, dose level Low, time 3 day
[3] = 120 h, dose 0.58 mg/Kg, dose level Low, time 5 day

`COc1ccc2c(c1)c(CC(=O)OCC(=O)O)c(C)n2C(=O)c1ccc(Cl)cc1` [ACEMETACIN] was tested, and the “ABSOLUTE BASOPHIL” value [1] was 0 CELLS/uL, the “ABSOLUTE EOSINOPHIL” value [1] was 198 CELLS/uL and the “ABSOLUTE LYMPHOCYTE” value [1] was 16941.67 CELLS/uL. The “ABSOLUTE MONOCYTE” value [1] was 330.33 CELLS/uL, the “ABSOLUTE SEGMENTED NEUTROPHIL” value [1] was 2163.33 CELLS/uL and the BASOPHIL [1] was 0%. The EOSINOPHIL [1] was 1%, the “ERYTHROCYTE COUNT” value [1] was 6.35 x10E6/uL and the HEMATOCRIT [1] was 38.5%. For the same compound, the HEMOGLOBIN [1] was 14.23 G/DL, the “LEUKOCYTE COUNT” value [1] was 19.63 x10E3/uL and the LYMPHOCYTE [1] was 86.33%. The “MEAN CORPUSCULAR HEMOGLOBIN” value [1] was 22.47 pg, the “MEAN CORPUSCULAR HEMOGLOBIN CONCENTRATION” value [1] was 36.97 G/DL and the “MEAN CORPUSCULAR VOLUME” value [1] was 60.67 fL. The MONOCYTE [1] was 1.67%, the NEUTROPHIL [1] was 11% and the “NUCLEATED RED BLOOD CELLS” value [1] was 0 /100WBC. The “PLATELET COUNT” value [1] was 1196 x10E3/uL, the “ALANINE AMINOTRANSFERASE” value [1] was 77 u/L and the ALBUMIN [1] was 4.33 G/DL. The “ALKALINE PHOSPHATASE” value [1] was 434 u/L, the “ASPARTATE AMINOTRANSFERASE” value [1] was 106.33 u/L and the “BLOOD UREA NITROGEN” value [1] was 15.33 mg/dL. The “CARBON DIOXIDE” value [1] was 26 mmol/L, the CHLORIDE [1] was 102 MEQ/L and the CHOLESTEROL [1] was 58 mg/dL. The “CREATINE PHOSPHOKINASE” value [1] was 673.33 u/L, the CREATININE [1] was 0.19 mg/dL and the GLUCOSE [1] was 155.33 mg/dL. For the same compound, the “LACTATE DEHYDROGENASE” value [1] was 783.33 u/L, the LIPASE [1] was 10 u/L and the PHOSPHORUS [1] was 11.9 mg/dL. For the same compound, the POTASSIUM [1] was 6.17 MEQ/L, the SODIUM [1] was 143.57 MEQ/L and the “TOTAL BILIRUBIN” value [1] was 0.2 mg/dL. The “TOTAL PROTEIN” value [1] was 5.87 G/DL, the “URIC ACID” value [1] was 1.93 mg/dL and the “ABSOLUTE BASOPHIL” value [2] was 0 CELLS/uL. For the same compound, the “ABSOLUTE EOSINOPHIL” value [2] was 126 CELLS/uL, the “ABSOLUTE LYMPHOCYTE” value [2] was 13647.33 CELLS/uL and the “ABSOLUTE MONOCYTE” value [2] was 360 CELLS/uL. The “ABSOLUTE SEGMENTED NEUTROPHIL” value [2] was 1833.33 CELLS/uL, the BASOPHIL [2] was 0% and the EOSINOPHIL [2] was 0.67%. The “ERYTHROCYTE COUNT” value [2] was 5.77 x10E6/uL, the HEMATOCRIT [2] was 35.7% and the HEMOGLOBIN [2] was 13.3 G/DL. The “LEUKOCYTE COUNT” value [2] was 15.97 x10E3/uL, the LYMPHOCYTE [2] was 85.67% and the “MEAN CORPUSCULAR HEMOGLOBIN” value [2] was 23.07 pg. For the same compound, the “MEAN CORPUSCULAR HEMOGLOBIN CONCENTRATION” value [2] was 37.23 G/DL, the “MEAN CORPUSCULAR VOLUME” value [2] was 61.97 fL and the MONOCYTE [2] was 2.33%. For the same compound, the NEUTROPHIL [2] was 11.33%, the “NUCLEATED RED BLOOD CELLS” value [2] was 0 /100WBC and the “PLATELET COUNT” value [2] was 1055 x10E3/uL. The “ALANINE AMINOTRANSFERASE” value [2] was 66 u/L, the ALBUMIN [2] was 3.93 G/DL and the “ALKALINE PHOSPHATASE” value [2] was 319 u/L. For the same compound, the “ASPARTATE AMINOTRANSFERASE” value [2] was 94 u/L, the “BLOOD UREA NITROGEN” value [2] was 16.33 mg/dL and the “CARBON DIOXIDE” value [2] was 27 mmol/L. The CHLORIDE [2] was 102.33 MEQ/L, the CHOLESTEROL [2] was 67.33 mg/dL and the “CREATINE PHOSPHOKINASE” value [2] was 359 u/L. The CREATININE [2] was 0.19 mg/dL, the GLUCOSE [2] was 160.33 mg/dL and the “LACTATE DEHYDROGENASE” value [2] was 379.33 u/L. For the same compound, the LIPASE [2] was 9.67 u/L, the PHOSPHORUS [2] was 11.53 mg/dL and the POTASSIUM [2] was 6.9 MEQ/L. The SODIUM [2] was 144.43 MEQ/L, the “TOTAL BILIRUBIN” value [2] was 0.2 mg/dL and the “TOTAL PROTEIN” value [2] was 5.37 G/DL. For the same compound, the “URIC ACID” value [2] was 1.47 mg/dL, the “ABSOLUTE BASOPHIL” value [3] was 0 CELLS/uL and the “ABSOLUTE EOSINOPHIL” value [3] was 113 CELLS/uL. The “ABSOLUTE LYMPHOCYTE” value [3] was 13989.33 CELLS/uL, the “ABSOLUTE MONOCYTE” value [3] was 257.33 CELLS/uL and the “ABSOLUTE SEGMENTED NEUTROPHIL” value [3] was 2073.67 CELLS/uL. The BASOPHIL [3] was 0%, the EOSINOPHIL [3] was 0.67% and the “ERYTHROCYTE COUNT” value [3] was 6.2 x10E6/uL. The HEMATOCRIT [3] was 37.73%, the HEMOGLOBIN [3] was 13.77 G/DL and the “LEUKOCYTE COUNT” value [3] was 16.43 x10E3/uL. For the same compound, the LYMPHOCYTE [3] was 85.33%, the “MEAN CORPUSCULAR HEMOGLOBIN” value [3] was 22.23 pg and the “MEAN CORPUSCULAR HEMOGLOBIN CONCENTRATION” value [3] was 36.53 G/DL. The “MEAN CORPUSCULAR VOLUME” value [3] was 60.93 fL, the MONOCYTE [3] was 1.67% and the NEUTROPHIL [3] was 12.33%. The “NUCLEATED RED BLOOD CELLS” value [3] was 0 /100WBC, the “PLATELET COUNT” value [3] was 1216 x10E3/uL and the “ALANINE AMINOTRANSFERASE” value [3] was 65.33 u/L. The ALBUMIN [3] was 4.53 G/DL, the “ALKALINE PHOSPHATASE” value [3] was 452 u/L and the “ASPARTATE AMINOTRANSFERASE” value [3] was 90.33 u/L. The “BLOOD UREA NITROGEN” value [3] was 19.67 mg/dL, the “CARBON DIOXIDE” value [3] was 26.67 mmol/L and the CHLORIDE [3] was 105 MEQ/L. For the same compound, the CHOLESTEROL [3] was 58.33 mg/dL, the “CREATINE PHOSPHOKINASE” value [3] was 293.67 u/L and the CREATININE [3] was 0.22 mg/dL. For the same compound, the GLUCOSE [3] was 163.33 mg/dL, the “LACTATE DEHYDROGENASE” value [3] was 355 u/L and the LIPASE [3] was 9 u/L. For the same compound, the PHOSPHORUS [3] was 11.6 mg/dL, the POTASSIUM [3] was 6.5 MEQ/L and the SODIUM [3] was 145.13 MEQ/L. For the same compound, the “TOTAL BILIRUBIN” value [3] was 0.13 mg/dL, the “TOTAL PROTEIN” value [3] was 6.27 G/DL and the “URIC ACID” value [3] was 1.97 mg/dL.
